{
  "source": "patent US10285994B2",
  "about": "“Method of preventing or treating osteoporosis by neddylation inhibitor” (Chang Gung University, priority 2017, dated 2019)",
  "key": {"[1]": {"test_system": "primary mouse bone marrow-derived macrophages (BMMs)", "test": "Pit assay on Corning Osteo Surface, BMM-derived osteoclasts", "type": "cell-based", "conditions": "M-CSF, sRANKL, 7 days, FIG. 1B", "method": "FIGS. 1A-1D are data collected from primary mouse bone marrow-derived macrophages (BMMs) respectively incubated in the medium containing the soluble recombinant RANKL (sRANKL, 50 ng/ml), macrophage colony-stimulating factor (M-CSF, 40 ng/ml) and specified concentrations of MLN4924 for 7 days according to example 1.1 of the present disclosure. FIG. 1A: the photographs of TRAP staining depicting the differentiation of osteoclasts from BMMs. FIG. 1B: after the differentiation of osteoclasts in Corning Osteo Surface (a synthetic 3-dimensional structure that mimics in vivo bone for in vitro bone cell assays), the cells were removed, and the resorbed areas for confirming osteoclast activity were analyzed by 1% toluidine blue staining. FIG. 1C: the culture medium is subject to Biovision Cathepsin K Activity Fluorometric Assay Kit for the analysis of cathepsin K activity. FIG. 1D: the effect of effective doses of MLN4924 on the viability of BMMs is evaluated by MTT assay. Scale bar represents 100 μm. Data are expressed as mean±SD where *p<0.05; **p<0.01.\nThe pre-osteoclasts and RAW264.7 cells were seeded into Corning Osteo Surface Assay 96-wells plate (Corning, Kennebunk, Me.). […]\nThe effect of MLN4924 on the activity of osteoclast was then confirmed by pit assay. […] The resorbing areas on bone matrix by osteoclasts were visualized by 1% toluidine blue staining and quantified by image software."}, "[2]": {"test_system": "cathepsin K", "test": "Cathepsin K activity fluorometric assay, RAW264.7 cells", "type": "cell-based, mouse", "conditions": "sRANKL-activated RAW264.7 cells, 7 days, FIG. 2C", "method": "FIGS. 2A-2D are data collected from RAW264.7 cells respectively incubated in the medium containing sRANKL (50 ng/ml) and specified concentrations of MLN4924 for 7 days according to example 1.2 of the present disclosure. FIG. 2A: the photographs of TRAP staining depicting the differentiation of osteoclasts from RAW264.7 cells. FIG. 2B: after the differentiation of osteoclasts in Corning Osteo Surface, the cells were removed, and the resorbed areas for confirming osteoclast activity were analyzed by 1% toluidine blue staining. FIG. 2C: the culture medium is subject to Biovision Cathepsin K Activity Fluorometric Assay Kit for the analysis of cathepsin K activity. FIG. 2D: the effect of effective doses of MLN4924 on the viability of RAW264.7 cells is evaluated by MTT assay. Scale bar represents 100 μm. Data are expressed as mean±SD where *p<0.05.\nThe pre-osteoclasts and RAW264.7 cells were seeded into Corning Osteo Surface Assay 96-wells plate (Corning, Kennebunk, Me.). Twenty-four hours later, the cells were treated with sRANKL (50 ng/ml) and specified concentrations of MLN4924 for 7 days. The cells were then harvested so as to evaluate the cathepsin K activity by use of Biovision Cathepsin K Activity Fluorometric Assay Kit (Biovision, Milpitas, Calif.). The Corning Osteo surface was stained with 1% toluidine blue for 24 hours and washed with deionized water twice. […]"}, "[3]": {"test_system": "MC3T3-E1 cells", "test": "Osteoblast survival, crystal violet staining of MC3T3-E1 cells", "type": "cell-based, mouse", "conditions": "MC3T3-E1, osteoblast differentiation medium, 21 days, FIG. 4A", "method": "FIGS. 4A-4B respectively depict the osteogenesis of mouse pre-osteoblast cell line MC3T3-E1 cells incubated in the differentiation medium containing specified concentrations of MLN4924 for 21 days according to example 3 of the present disclosure. FIG. 4A: the growth of MC3T3-E1 cells during osteogenesis is analyzed by crystal violet staining. FIG. 4B: the osteogenesis of MC3T3-E1 cells on day 21 is analyzed by measuring Alizarin Red S stain. Diff: osteoblast differentiation medium. MLN: MLN4924.\nThe mouse pre-osteoblast cell line MC3T3-E1 cells were cultured in osteoblast differentiation medium with or without MLN4924 for 21 days."}, "[4]": {"test_system": "ovariectomized (OVX) mice", "test": "Serum CTX-1 ELISA in OVX + sRANKL mice", "type": "in vivo, mouse", "conditions": "10 mg/kg i.p. once daily for 2 weeks, FIG. 6E", "method": "FIGS. 6A-6E are the data depicting the mouse model of ovariectomy-induced osteoporosis, in which the ovariectomized (OVX) mice are respectively treated with sRANKL (1 mg/Kg) in the absence or presence of MLN4924 (10 mg/Kg) according to example 5.1 of the present disclosure. FIG. 6A: Micro computed-tomography (micro-CT) three-dimensional images of the distal femurs of mice respectively treated with the indicated treatments, in which the left panels represent transaxial plane, and the right panels represent coronal plane. FIGS. 6B-6D: micro-CT measurement of trabecular bone parameters, including bone volume/total volume (FIG. 6B), trabecular number (FIG. 6C), and trabecular space (FIG. 6D). […] Values are expressed as mean±SD, N=6 per group. *p<0.05; **p<0.01.\nAll experimental procedures were approved by the Institutional Animal Care and Use Committee of the Chang Gung Memorial Hospital at Chiayi and complied with the Guideline for the Care and Use of Laboratory Animals available through the National Academy of Sciences (IACUC number: 2013100102 and 2015103001). […] Serum levels of cross linked C-telopeptide of type I collagen (CTX-1) (CEA665Mu) was measured by specific ELISA kit (USCN life science incorporation, Wuhan, Hubei, China).\nSince CTX-1 serve as the biomarker for bone resorption, the level of CTX-1 in the serum of mice receiving specified treatments were then determined."}},
  "data": [
    {"smiles": "NS(=O)(=O)OC[C@@H]1C[C@@H](n2ccc3c(N[C@H]4CCc5ccccc54)ncnc32)C[C@@H]1O", "note": "[MLN4924, (1S,2S,4R)-4-(4-((1S)-2,3-Dihydro-1H-inden-1-ylamino)-7H-pyrrolo(2,3-d)pyrimidin-7-yl)-2-hydroxycyclopentyl) methyl sulphamate]", "values": [
      {"measurement": "resorbing activity of osteoclasts (pit assay, toluidine blue)", "setting": "[1]", "result": "suppressed the resorbing activity of osteoclasts in a dose-dependent manner"},
      {"measurement": "osteolytic enzyme cathepsin K activity of osteoclasts", "setting": "[2]", "result": "significantly inhibited"},
      {"measurement": "survival of osteoblasts (crystal violet)", "setting": "[3]", "result": "neither the survival of osteoblasts (FIG. 4A), nor the differentiation of osteoblasts (FIG. 4B) was affected"},
      {"measurement": "serum CTX-1 level", "setting": "[4]", "result": "significantly rescued the OVX+sRANKL-stimulated serum CTX-1 level upregulation"}
    ]}
  ]
}
